“And” between values parts separate entries of the source, which are not always exact repeats. Identical values can stand only once.
What was measured:
[1] = Inhibition of linoleic acid peroxidation (AAPH); format: biochemical; conditions: anti-lipid peroxidation
From the text: We also used water-soluble 2,2′-[…](2-amidinopropane) hydrochloride (AAPH) for the generation of free radicals. AAPH has been extensively used as a clean and controllable source of thermally produced alkylperoxyl free radicals. The peroxyl radicals produced by the action of AAPH show total similarity to cellular activities such as lipid peroxidation. […] It seems that the presence of 3,5-di-tert-butyl-group greatly enhances protection against lipid peroxidation (6i/ii and 7i/ii followed by 3ii and 5ii). The lipid peroxidation inhibitory activity seems to be concentration dependent.
2,2’-Azobis(2-amidinopropane) dihydrochloride (AAPH) was used as a free radical initiator to start the oxidation reaction. The method was based on the production of conjugated diene hydroperoxide by oxidation of linoleic acid at 234 nm expressed as an increased absorption. Trolox was used as reference compound (93%) (Table 2).

[2] = Competition with DMSO for hydroxyl radicals (Fe3+/ascorbic acid system); format: biochemical; conditions: hydroxyl radical scavenging
Procedure: Competition of the novel substituted acids with DMSO for hydroxyl radicals was measured. Hydroxyl radicals were generated using the Fe^3+/ascorbic acid system and expressed as a percentage inhibition of formaldehyde production in the presence of each compound at 100 μM (Table 2). All the synthesized derivatives strongly scavenge hydroxyl radicals at 100 μM in comparison to the reference compound Trolox.
The hydroxyl radicals generated by the Fe^3+/ascorbic acid system, were detected by the determination of formaldehyde produced from the oxidation of DMSO (Table 2). Trolox was used as reference compound [17, 18, 28].

[3] = Experimental lipophilicity as RM values by reversed phase TLC (RPTLC); format: physicochemical; conditions: methanol/water 77/23 with 0.1% acetic acid, 24 °C, average of at least 5 measurements
From the text: Lipophilicity is a physicochemical property correlated with the biological activity. Lipophilicity influences ligand-target binding interactions, solubility, absorption, distribution, bioavailability, metabolism and elimination (ADME) and toxicological outcomes. The lipophilicity of the novel cinnamic acids was experimentally measured as RM values using a reverse phase thin layer chromatography (RPTLC) method. This is acknowledged as a reliable, fast and convenient approach for expressing lipophilicity (Table 1). RM relates to the thermodynamic Rf value in a logarithmic form. Bate-Smith and Westall firstly determined lipophilicity as RM values in 1950 [31]. The Br-substituted derivatives 1i–7i are more lipophilic than the OH-substituted ones 1ii–7ii which can be easily explained by their structural characteristics.
Reversed phase TLC (RPTLC) was performed on silica gel plates impregnated with 55% (v/v) liquid paraffin in light petroleum ether. The mobile phase was a methanol/water mixture (77/23, v/v) containing 0.1% of acetic acid. The plates were developed in closed chromatography tanks saturated with the mobile phase at 24 °C. Spots were detected under UV light. RM values were determined from the corresponding Rf values (from five individual measurements) using the equation RM = log[(1/Rf) − 1] [17, 18, 28].

[4] = ABTS+• decolorization assay; format: biochemical; conditions: 1 min, 734 nm
Procedure: No role for lipophilicity was found. Oxidation of ABTS with potassium persulfate generates directly the ABTS radical cation (ABTS^+•) with no involvement of an intermediary radical, which is then reduced upon adding electron-donating antioxidants.
In order to produce the ABTS radical cation (ABTS^+•), ABTS stock solution in water (7 mM) was mixed with potassium persulfate (2.45 mM) and left in the dark at room temperature for 12–16 h before use. Our published experimental technique was used (Table 2). The results are recorded after 1 min of the mixing solutions at 734 nm. The results were compared to the appropriate standard inhibitor Trolox.

[5] = Reducing activity of the stable radical DPPH; format: biochemical
Procedure: The substituted acids were monitored for the antioxidant activity by the use of the stable 2,2-diphenyl-1-picrylhydrazyl radical (DPPH) at concentration 50 µM and 100 µM after 20 and 60 min (Table 1). In this assay the DPPH radical is reduced by single electron transfer from the antioxidant. Strong antioxidants are the phenoxide anions from phenolic compounds like catechol and derivatives, such as nordihydroguaretic acid (NDGA), the reference compound. The compounds presented medium reducing abilities from 29–61%, due to steric reasons; small differences were found among the compounds with time and concentration. 4-Br-substituted-3 phenyl acetic acid derivatives (Series I) are equipotent to 4-OH-substituted-3 phenyl acetic acid derivatives (Series II). No differences were observed between 4i and 5i and 4ii and 5ii.
To a solution of DPPH in absolute ethanol an equal volume of the compounds dissolved in DMSO was added. The final concentrations of the measured solutions of the novel acids were 50 and 100 µM starting from a stock solution (10 mM) in DMSO. The absorbance was recorded at 517 nm, after 20 and 60 min at room temperature (Table 1).

soybean lipoxygenase = target: T1, soybean lipoxygenase (Glycine max, UniProt P08170); assay: Soybean lipoxygenase inhibition in vitro; format: biochemical; conditions: sodium linoleate 0.1 mM, 234 nm, read-out: LOX IC50
T1 construct: purchased Sigma Chemical, Co. (St. Louis)
T1 sequence (P08170 1-839): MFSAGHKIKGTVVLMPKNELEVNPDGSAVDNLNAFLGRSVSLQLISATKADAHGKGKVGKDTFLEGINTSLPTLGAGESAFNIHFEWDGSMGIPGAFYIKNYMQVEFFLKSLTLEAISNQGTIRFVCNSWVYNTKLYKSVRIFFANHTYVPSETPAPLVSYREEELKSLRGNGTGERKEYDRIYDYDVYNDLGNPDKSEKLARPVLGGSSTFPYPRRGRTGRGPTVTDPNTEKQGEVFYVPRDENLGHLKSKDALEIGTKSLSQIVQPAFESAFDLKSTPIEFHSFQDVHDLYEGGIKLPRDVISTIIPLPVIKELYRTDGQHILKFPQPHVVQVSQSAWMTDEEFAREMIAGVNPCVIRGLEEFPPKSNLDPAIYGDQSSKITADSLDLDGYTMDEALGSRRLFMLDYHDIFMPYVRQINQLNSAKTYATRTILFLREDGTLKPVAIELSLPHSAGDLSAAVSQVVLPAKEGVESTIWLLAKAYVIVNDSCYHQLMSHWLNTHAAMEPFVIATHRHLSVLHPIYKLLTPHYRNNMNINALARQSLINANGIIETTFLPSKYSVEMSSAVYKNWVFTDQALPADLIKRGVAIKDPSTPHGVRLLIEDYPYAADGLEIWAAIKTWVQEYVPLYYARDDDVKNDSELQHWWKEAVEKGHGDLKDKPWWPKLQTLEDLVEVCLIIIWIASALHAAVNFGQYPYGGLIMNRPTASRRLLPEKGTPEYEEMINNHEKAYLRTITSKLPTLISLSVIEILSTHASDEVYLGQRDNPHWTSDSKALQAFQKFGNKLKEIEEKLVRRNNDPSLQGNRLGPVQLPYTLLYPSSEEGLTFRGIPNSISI
Procedure: Many research groups have used readily obtainable soybean lipoxygenase, which is a homologue of mammalian lipoxygenase and well studied. Due to its availability and its well-characterised crystal structure, soybean LOX was selected to be used in this study.
In vitro study was evaluated as reported previously by our group. The tested compounds were incubated at room temperature with sodium linoleate (0.1 mM) and 0.2 mL of enzyme solution (1/9 × 104 w/v in saline). The method was based to the conversion of sodium linoleate to 13-hydroperoxylinoleic acid at 234 nm. […] In order to determine the IC50 values different concentrations were used.

Structure (SMILES) | RM (±SD) [3] | IC50 (soybean lipoxygenase) | melting point | AAPH% 50 µM [1] | AAPH% 100 µM [1] | HO•% 100 µM [2] | ABTS+•% 100 µM [4] | RA% 50 µM 20 min [5] | RA% 50 µM 60 min [5] | RA% 100 µM 20 min [5] | RA% 100 µM 60 min [5] | AAPH lipid peroxidation inhibition at 10 μΜ ([1]; 10 μΜ)
O=C(O)C(=Cc1ccc(OCc2ccc(Br)cc2)cc1)c1ccc(Br)cc1 [Compound 2i, 3-(4-((4-Bromobenzyl)oxy)phenyl)-2-(4-bromophenyl)acrylic acid] | 0.605 (0.016) | 76 µM | – | 48% | 96% | 95% | 32% | 35% | 34% | 37% | 40% | –
CN(C)c1ccc(C=CC=C(C(=O)O)c2ccc(Br)cc2)cc1 [Compound 3i, 2-(4-Bromophenyl)-5-(4-(dimethylamino)phenyl)penta-2,4-dienoic acid] | 0.582 (0.037) | 7.4 µM | 120 to 121 °C | 43% | 88% | 100% | 83.4% and 83% | 34% | 37% | 48% | 51% | –
CC(Cc1ccc(O)c(O)c1)C(C)Cc1ccc(O)c(O)c1 (stereo not drawn) [NDGA, nordihydroguaretic acid, reference compound] | – | – | – | – | – | – | – | 81% | 83% | 87% | 93% | –
Cc1c(C)c2c(c(C)c1O)CCC(C)(C(=O)O)O2 (stereo not drawn) [Trolox, reference compound] | – | – | – | – | 93% | 73% | 88% | – | – | – | – | –

More lines, in order of falling IC50 (soybean lipoxygenase), values ahead:

RM (±SD) [3] | IC50 (soybean lipoxygenase) | melting point | Structure (SMILES) | AAPH% 50 µM [1] | AAPH% 100 µM [1] | HO•% 100 µM [2] | ABTS+•% 100 µM [4] | RA% 50 µM 20 min [5] | RA% 50 µM 60 min [5] | RA% 100 µM 20 min [5] | RA% 100 µM 60 min [5] | AAPH lipid peroxidation inhibition at 10 μΜ ([1]; 10 μΜ)
0.683 (0.015) | 77.5 µM | 128 to 129 °C | CC(=Cc1ccccc1)C=C(C(=O)O)c1ccc(Br)cc1 [Compound 5i, 2-(4-Bromophenyl)-4-methyl-5-phenylpenta-2,4-dienoic acid] | 10% | 98% | 82% | 30% | 33% | 33% | 36% | 38% | 9.6%
0.061 (0.007) | 77 µM | – | O=C(O)C(=Cc1ccc(OCc2ccc(Br)cc2)cc1)c1ccc(O)cc1 [Compound 2ii, 3-(4-((4-Bromobenzyl)oxy)phenyl)-2-(4-hydroxyphenyl)acrylic acid] | 49% | 87% | 99% | 47% | 36% | 37% | 43% | 56% | –
0.622 (0.025) | 74 µM | 134 to 136 °C | CC(C)(C)c1cc(C=C(C(=O)O)c2ccc(O)cc2)c(O)c(C(C)(C)C)c1 [Compound 6ii, 3-(3,5-di-tert-Butyl-2-hydroxyphenyl)-2-(4-hydroxyphenyl)acrylic acid] | 64% | 96% | 100% | 38% | 43% | 36% | 31% | 36% | –
0.480 (0.035) | 60 µM | 168 to 170 °C | CC(C)(C)c1cc(C=C(C(=O)O)c2ccc(Br)cc2)c(O)c(C(C)(C)C)c1 [Compound 6i, 2-(4-Bromophenyl)-3-(3,5-di-tert-butyl-2-hydroxyphenyl)acrylic acid] | 56% | 100% | 100% | 53% | 38% | 36% | 44% | 39% | –

Reference: paper PMC6337588, “Multi-Target Cinnamic Acids for Oxidative Stress and Inflammation: Design, Synthesis, Biological Evaluation and Modeling Studies” (Molecules, 2018)
